Measurements published in patent US10517889B2, “Modulators of SMAD7 expression” (Ionis Pharmaceuticals, Inc., priority 2017, dated 2019).
Strand notation (5' to 3'): a small letter for the sugar, then the base; units joined by * are phosphorothioate-linked, units joined directly phosphodiester-linked; [ ] holds rarer units or linkages, { } end groups; capitals alone tell only the bases. k = constrained ethyl (cEt); [5mC] = 5-methylcytosine; d = 2'-deoxy (DNA)

Each substance was assayed on human SMAD7 mRNA (assay: Antisense inhibition of human SMAD7 mRNA expression in Hep3B cells by 3-10-3 cEt gapmers, 10,000 nM, electroporation (Example 2)). Details: Hep3B cells, 10,000 nM antisense oligonucleotide, electroporation, approximately 24 hours, RT-PCR primer probe set RTS5062, relative to untreated control cells.
Assay type: cell-based
In short: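 SMAD7 mRNA was measured by real-time PCR (RTS5062) with RiboGreen total-RNA normalization, about 24 h after 10,000 nM gapmer was delivered by electroporation into Hep3B cells at 20,000 per well. Gapmers were 16-mer 3-10-3 cEt, fully phosphorothioate; values are % inhibition versus untreated controls.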

| Substance | % Inhibition |
| --- | --- |
| 800058 (antisense kT*k[5mC]*kA*dT*d[5mC]*dA*dG*dG*d[5mC]*dA*dT*dT*d[5mC]*kA*k[5mC]*kT) [compound 800058] | 51% |
| 798908 (k[5mC]*kG*k[5mC]*dG*dG*d[5mC]*dT*dA*d[5mC]*d[5mC]*dG*dG*d[5mC]*kT*kG*kT; antisense) [compound 798908] | 0% |

Same assay, conditions: Hep3B cells, electroporation with 10,000 nM antisense oligonucleotide, approximately 24 hours, RTS5062, percent inhibition of SMAD7 mRNA relative to untreated control cells

| Substance | % Inhibition |
| --- | --- |
| 799764 (antisense kA*k[5mC]*kG*d[5mC]*dT*dA*dA*dG*dG*dA*dA*dA*dA*kA*kG*k[5mC]) [compound 799764] | 19% |
| 799685 (antisense kG*kA*kT*dT*dT*dT*dA*dA*dA*dT*dG*d[5mC]*dT*kG*kT*k[5mC]) [compound 799685] | 25% |
| 799783 (kG*k[5mC]*kA*d[5mC]*dA*dT*dA*dA*dT*dA*dG*dG*dT*kG*kT*k[5mC]; antisense) [compound 799783] | 24% |
| 799550 (kA*kG*k[5mC]*dT*d[5mC]*d[5mC]*dT*dA*d[5mC]*dT*dG*dT*dT*kG*kG*k[5mC]; antisense) [compound 799550] | 50% |
| 799311 (antisense k[5mC]*kT*kT*dT*dA*dA*dG*d[5mC]*dA*d[5mC]*dG*d[5mC]*dT*k[5mC]*kT*kA) [compound 799311] | 27% |
| 799289 (antisense kT*kA*kT*dT*dA*dA*dT*dG*dG*dT*d[5mC]*dT*dG*k[5mC]*kT*k[5mC]) [compound 799289] | 61% |
| 799643 (kG*kT*kG*dA*dT*d[5mC]*d[5mC]*d[5mC]*d[5mC]*dG*dG*dA*dA*kA*kG*k[5mC]; antisense) [compound 799643] | 26% |

Same assay, conditions: Hep3B cells, electroporation with 10,000 nM antisense oligonucleotide, approximately 24 hours, SMAD7 mRNA by RT-PCR (RTS5062), relative to untreated control cells

| Substance | % Inhibition |
| --- | --- |
| 798849 (k[5mC]*kA*kG*d[5mC]*d[5mC]*dG*dA*dT*dT*dT*dT*dG*d[5mC]*kT*k[5mC]*k[5mC]; antisense) [compound 798849] | 21% |
| 798754 (kA*kG*k[5mC]*d[5mC]*dT*dG*d[5mC]*dA*dG*dT*d[5mC]*d[5mC]*dA*kG*kG*k[5mC]; antisense) [compound 798754] | 16% |
| 799259 (antisense kT*kG*k[5mC]*d[5mC]*d[5mC]*d[5mC]*dA*dA*dA*dA*d[5mC]*dT*d[5mC]*k[5mC]*kA*kA) [compound 799259] | 45% |
| 798899 (kG*kG*k[5mC]*dA*dG*d[5mC]*dT*dG*d[5mC]*dT*dG*dA*dT*kG*kA*kA; antisense) [compound 798899] | 13% |
| 830152 (antisense k[5mC]*k[5mC]*k[5mC]*dG*dG*dA*dG*dA*dG*dG*dA*dA*dG*k[5mC]*k[5mC]*kT) [compound 830152] | 23% |
| 798701 (antisense k[5mC]*kT*kT*d[5mC]*dT*d[5mC]*d[5mC]*d[5mC]*d[5mC]*dG*d[5mC]*dA*dG*k[5mC]*kT*k[5mC]) [compound 798701] | 23% |
| 798669 (k[5mC]*kG*k[5mC]*dT*d[5mC]*d[5mC]*dG*dT*dG*dG*d[5mC]*dA*dT*kG*k[5mC]*kG; antisense) [compound 798669] | 0% |
| 800067 (antisense kA*kG*kG*dA*d[5mC]*d[5mC]*dT*dG*dG*dG*dA*dA*d[5mC]*k[5mC]*k[5mC]*kA) [compound 800067] | 51% |
| 799390 (antisense k[5mC]*kA*kA*dA*dA*d[5mC]*dT*dT*dT*dT*dA*dA*dT*kT*kA*kG) [compound 799390] | 0% |
| 798682 (antisense kG*k[5mC]*kT*dA*dA*dG*dG*dA*dG*d[5mC]*dG*dA*dA*k[5mC]*kA*kT) [compound 798682] | 60% |
| 799449 (antisense k[5mC]*kA*kG*d[5mC]*dA*d[5mC]*dT*dG*d[5mC]*dA*dT*d[5mC]*dG*kG*kA*kA) [compound 799449] | 37% |
| 799367 (antisense kA*kG*kT*d[5mC]*dT*d[5mC]*d[5mC]*dG*dA*dG*dT*dT*dA*kT*k[5mC]*k[5mC]) [compound 799367] | 41% |
| 830185 (antisense kG*k[5mC]*k[5mC]*dA*d[5mC]*d[5mC]*dA*dA*d[5mC]*dG*dG*dT*dT*kG*k[5mC]*k[5mC]) [compound 830185] | 27% |
| 799435 (antisense kT*k[5mC]*k[5mC]*dT*d[5mC]*dA*dA*dA*d[5mC]*d[5mC]*dT*dT*dT*k[5mC]*kA*kG) [compound 799435] | 60% |

Same assay, conditions: Hep3B cells, electroporation with 10,000 nM antisense oligonucleotide, approximately 24 hours, primer probe set RTS5062, relative to untreated control cells

| Substance | % inhibition of SMAD7 mRNA expression | % Inhibition |
| --- | --- | --- |
| 798946 (antisense kG*kA*kA*d[5mC]*dA*d[5mC]*dA*dA*dA*d[5mC]*dG*dA*dG*kG*kA*k[5mC]) [compound 798946] | 4% | – |
| 798942 (antisense k[5mC]*kG*kA*dG*dA*dA*dG*dA*dA*dG*dA*dA*dA*kA*k[5mC]*k[5mC]) [compound 798942] | – | 35% |
| 799100 (antisense kG*kA*kA*dA*dA*dA*d[5mC]*d[5mC]*dT*dG*dA*dT*dG*kT*k[5mC]*kA) [compound 799100] | – | 38% |
| 799242 (k[5mC]*kG*kT*dG*dA*dT*dT*d[5mC]*dT*d[5mC]*d[5mC]*dG*dT*kA*kT*kT; antisense) [compound 799242] | 0% | – |
| 799014 (kA*k[5mC]*kA*dT*d[5mC]*d[5mC]*dA*dT*dA*dA*dG*dA*dG*kA*k[5mC]*kA; antisense) [compound 799014] | – | 29% |
| 799106 (antisense kT*kT*kT*dT*d[5mC]*dT*dA*dA*dG*dT*d[5mC]*d[5mC]*dG*kG*kG*kA) [compound 799106] | 34% | – |
| 799187 (antisense k[5mC]*kT*kT*d[5mC]*dT*d[5mC]*dT*dT*dG*dT*dT*d[5mC]*dA*kT*kT*kT) [compound 799187] | 17% | – |
| 798959 (antisense k[5mC]*k[5mC]*k[5mC]*dA*dA*d[5mC]*dA*dA*dT*dT*d[5mC]*dT*dT*kT*kT*k[5mC]) [compound 798959] | – | 36% |
| 799005 (antisense k[5mC]*kG*kT*dG*d[5mC]*dA*d[5mC]*dA*d[5mC]*dA*d[5mC]*dA*dG*k[5mC]*k[5mC]*kG) [compound 799005] | 0% | – |
| 799076 (antisense kA*kG*k[5mC]*dA*dG*dA*dT*dG*dG*d[5mC]*d[5mC]*dA*dA*kA*kA*kA) [compound 799076] | – | 34% |
| 798953 (antisense kA*kG*k[5mC]*dT*dA*dT*dT*dT*d[5mC]*dT*d[5mC]*dA*dA*kA*kG*kA) [compound 798953] | – | 17% |
| 799211 (kA*k[5mC]*kA*dT*dA*dA*dA*dT*dA*dA*dT*dG*dA*kT*kG*k[5mC]; antisense) [compound 799211] | – | 0% |
| 799397 (antisense kA*kA*kA*dA*d[5mC]*dA*dG*dA*dG*d[5mC]*dT*dT*dG*kG*kT*kA) [compound 799397] | 27% | – |
| 799170 (antisense kT*k[5mC]*kA*dT*dT*dG*dA*dG*d[5mC]*dT*dA*dA*dG*kA*kA*k[5mC]) [compound 799170] | 17% | – |
| 799418 (antisense kG*kT*kA*dA*dA*dT*dG*dG*dT*d[5mC]*d[5mC]*dA*dT*kG*kT*kA) [compound 799418] | 12% | – |

Same assay, conditions: Hep3B cells, electroporation, 10,000 nM antisense oligonucleotide, approximately 24 hours, RTS5062, relative to untreated control cells

| Substance | % inhibition of SMAD7 mRNA expression |
| --- | --- |
| 799501 (antisense kA*kA*kA*dA*dG*dA*dG*d[5mC]*dA*dG*dA*d[5mC]*dG*kG*kG*k[5mC]) [compound 799501] | 0% |

Same assay, conditions: Hep3B cells, electroporation, 10,000 nM, approximately 24 hours; 3-10-3 cEt gapmers targeting SEQ ID NO: 3 and 4

| Substance | % inhibition of SMAD7 mRNA expression |
| --- | --- |
| 829943 (kG*kG*kG*dA*dG*dA*d[5mC]*dT*d[5mC]*d[5mC]*dA*dG*dT*kT*k[5mC]*kG; antisense) [compound 829943] | 43% |

Same assay, conditions: SMAD7 mRNA, Hep3B cells, 10,000 nM antisense oligonucleotide, electroporation, approximately 24 hours, primer probe set RTS5062, relative to untreated control cells

| Substance | % Inhibition |
| --- | --- |
| 829716 (antisense kG*kT*k[5mC]*dT*d[5mC]*d[5mC]*d[5mC]*dG*dG*dA*dG*dG*d[5mC]*k[5mC]*kG*kG) [compound 829716] | 10% |
| 800883 (antisense kA*k[5mC]*k[5mC]*dA*dT*dT*dT*dA*dT*d[5mC]*dT*dG*dG*kT*kG*kT) [compound 800883] | 50% |
| 790679 (kA*kG*kG*dT*dT*dA*dA*dT*d[5mC]*dA*d[5mC]*dT*dT*k[5mC]*k[5mC]*kT; antisense) [compound 790679] | 13% |
| 829788 (kT*k[5mC]*k[5mC]*dG*dA*dG*dG*dA*dA*dT*dG*d[5mC]*d[5mC]*kT*kG*kA; antisense) [compound 829788] | 41% |
| 772551 (antisense kT*kT*k[5mC]*dA*dG*dA*dT*d[5mC]*d[5mC]*dG*d[5mC]*d[5mC]*dT*k[5mC]*kG*kG) [compound 772551] | 39% |
| 829728 (antisense kG*kG*k[5mC]*dG*d[5mC]*dA*dG*dG*d[5mC]*dG*dA*d[5mC]*dA*kG*k[5mC]*kA) [compound 829728] | 44% |
| 790871 (kT*kG*kT*dT*dA*dG*dG*dA*d[5mC]*d[5mC]*dT*dG*dG*kG*kA*kA; antisense) [compound 790871] | 39% |

Same assay, conditions: SMAD7 mRNA, Hep3B cells, electroporation with 10,000 nM antisense oligonucleotide, approximately 24 hours, primer probe set RTS5062, relative to untreated control cells

| Substance | % Inhibition |
| --- | --- |
| 829923 (kA*kG*kT*dA*dT*d[5mC]*dA*dT*dA*d[5mC]*dG*dA*dG*kT*kG*kT; antisense) [compound 829923] | 54% |
| 829871 (antisense kG*kT*k[5mC]*d[5mC]*dA*dG*dT*dG*dT*dG*dG*d[5mC]*dG*kG*kA*k[5mC]) [compound 829871] | 1% |
| 829916 (antisense kG*kA*kA*dG*dA*dG*dT*dT*dA*dG*dG*dT*dG*kT*k[5mC]*kA) [compound 829916] | 33% |
